# Reference: patent publication US9388181B2, “Substituted 1,2,3,4-tetrahydropyrido[3,4-E] pyrrolo[1,2-A]pyrimidines as kinase” (Allergan, Inc., priority 2014, dated 2016)
# Experiments:
# [1] = target: T1, PDGFRβ (Homo sapiens (Human), UniProt P09619); experiment: PDGFRβ Kinase Assay (biochemical, ELISA); settings: purified cytoplasmic domain PDGFR-b protein, 36 μM ATP
# Procedure: Biochemical PDGFRβ kinase assays were performed in 96 well microtiter plates that were coated overnight with 75 μg of poly-Glu-Tyr (4:1) in 10 mM Phosphate Buffered Saline (PBS), pH 7.4. The coated plates were washed with 2 mls per well PBS+0.05% Tween-20 (PBS-T), blocked by incubation with PBS containing 1% BSA, then washed with 2 mls per well PBS-T prior to starting the reaction. Reactions were carried out in 100 μL reaction volumes containing 36 μM ATP in kinase buffer (50 mM Hepes buffer pH 7.4, 20 mM MgCl2, 0.1 mM MnCl2 and 0.2 mM Na3VO4). Test compounds were reconstituted in 100% DMSO and added to the reaction to give a final DMSO concentration of 5%. Reactions were initiated by the addition 20 ul per well of kinase buffer containing 200-300 ng purified cytoplasmic domain PDGFR-b protein (Millipore). Following a 60 minute incubation at 30° C., the reactions were washed 2 mls per well PBS-T. 100 μl of a monoclonal anti-phosphotyrosine antibody-peroxidase conjugate diluted 1:10,000 in PBS-T was added to the wells for 30 minutes. Following a 2 mis per well wash with PBS-Tween-20, 100 μl of 0-Phenylenediamine Dihydrochloride in phosphate-citrate buffer, containing urea hydrogen peroxide, was added to the wells for 7-10 minutes as a colorimetric substrate for the peroxidase. The reaction was terminated by the addition of 100 μl of 2.5N H2SO4 to each well and read using a microplate ELISA reader set at 492 nm. IC50 values for compound inhibition were calculated directly from graphs of optical density (arbitrary units) versus compound concentration following subtraction of blank values.
# Target sequence in this assay (P09619 554-1106): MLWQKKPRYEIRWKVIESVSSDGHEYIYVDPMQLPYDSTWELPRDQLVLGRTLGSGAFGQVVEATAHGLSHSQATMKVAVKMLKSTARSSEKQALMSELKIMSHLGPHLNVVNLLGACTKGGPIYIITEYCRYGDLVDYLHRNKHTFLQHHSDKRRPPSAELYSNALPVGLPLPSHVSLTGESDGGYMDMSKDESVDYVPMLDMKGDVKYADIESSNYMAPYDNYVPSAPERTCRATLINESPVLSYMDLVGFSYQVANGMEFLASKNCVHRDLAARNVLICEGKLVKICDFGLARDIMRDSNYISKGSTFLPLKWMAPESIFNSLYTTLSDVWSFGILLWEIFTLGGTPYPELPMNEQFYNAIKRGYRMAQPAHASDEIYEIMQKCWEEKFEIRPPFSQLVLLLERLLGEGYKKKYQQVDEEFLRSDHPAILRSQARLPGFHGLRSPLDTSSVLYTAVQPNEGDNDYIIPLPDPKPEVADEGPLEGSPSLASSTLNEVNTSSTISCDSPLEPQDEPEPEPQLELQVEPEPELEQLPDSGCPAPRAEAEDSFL
# [2] = target: VEGFR2 (Homo sapiens (Human), UniProt P35968); experiment: VEGFR2 Cellular Assay (FLIPR, VEGF induced intracellular calcium in HUVEC); format: cell-based; settings: VEGF165 stimulation (10 ng/mL)
# Sequence of VEGFR2 (P35968 20-1356): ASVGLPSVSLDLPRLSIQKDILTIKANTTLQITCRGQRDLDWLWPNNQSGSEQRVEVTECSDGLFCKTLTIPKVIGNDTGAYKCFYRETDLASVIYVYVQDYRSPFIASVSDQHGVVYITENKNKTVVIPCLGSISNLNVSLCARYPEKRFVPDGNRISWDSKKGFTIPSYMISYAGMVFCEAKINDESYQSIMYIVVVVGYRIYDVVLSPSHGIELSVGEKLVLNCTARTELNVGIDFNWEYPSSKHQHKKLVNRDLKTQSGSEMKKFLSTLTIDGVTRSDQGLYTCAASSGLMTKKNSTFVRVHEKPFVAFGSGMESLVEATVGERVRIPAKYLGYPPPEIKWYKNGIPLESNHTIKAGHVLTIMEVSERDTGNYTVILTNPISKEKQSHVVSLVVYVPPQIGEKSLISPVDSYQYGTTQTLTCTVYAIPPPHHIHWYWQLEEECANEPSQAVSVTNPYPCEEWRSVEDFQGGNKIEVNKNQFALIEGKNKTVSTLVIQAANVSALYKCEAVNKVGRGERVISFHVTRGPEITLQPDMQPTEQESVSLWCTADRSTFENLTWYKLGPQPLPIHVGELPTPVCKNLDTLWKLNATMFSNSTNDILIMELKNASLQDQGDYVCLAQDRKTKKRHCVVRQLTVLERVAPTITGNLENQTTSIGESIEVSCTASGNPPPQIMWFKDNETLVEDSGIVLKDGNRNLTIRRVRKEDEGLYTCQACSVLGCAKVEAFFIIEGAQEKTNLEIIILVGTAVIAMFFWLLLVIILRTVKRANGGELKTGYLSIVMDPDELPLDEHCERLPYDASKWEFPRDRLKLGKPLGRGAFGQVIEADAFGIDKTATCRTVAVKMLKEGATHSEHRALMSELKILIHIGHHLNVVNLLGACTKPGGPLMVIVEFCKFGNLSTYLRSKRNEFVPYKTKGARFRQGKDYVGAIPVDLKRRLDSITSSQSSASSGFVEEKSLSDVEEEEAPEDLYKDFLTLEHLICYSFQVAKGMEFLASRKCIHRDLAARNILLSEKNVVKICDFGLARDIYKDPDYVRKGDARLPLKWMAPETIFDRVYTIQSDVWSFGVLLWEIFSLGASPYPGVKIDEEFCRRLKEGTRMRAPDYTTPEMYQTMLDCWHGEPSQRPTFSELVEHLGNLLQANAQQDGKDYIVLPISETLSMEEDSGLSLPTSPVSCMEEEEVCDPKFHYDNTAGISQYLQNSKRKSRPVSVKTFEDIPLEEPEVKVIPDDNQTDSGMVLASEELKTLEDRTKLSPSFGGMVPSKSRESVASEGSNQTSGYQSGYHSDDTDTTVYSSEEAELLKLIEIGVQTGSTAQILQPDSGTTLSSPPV
# Procedure: VEGFR2 Cellular Assay Automated FLIPR (Fluorometric Imaging Plate Reader) technology was used to screen for inhibitors of VEGF induced increases in intracellular calcium levels in fluorescent dye loaded endothelial cells. HUVEC (human umbilical vein endothelial cells) (Clonetics) were seeded in 384-well fibronectin coated black-walled plates overnight @ 37° C./5% CO2. Cells were loaded with calcium indicator Fluo-4 for 45 minutes at 37° C. Cells were washed 2 times (Elx405, Biotek Instruments) to remove extracellular dye. For screening, cells were pre-incubated with test agents for 30 minutes, at a single concentration (10 uM) or at concentrations ranging from 0.0001 to 10.0 uM followed by VEGF165 stimulation (10 ng/mL). Changes in fluorescence at 516 nm were measured simultaneously in all 384 wells using a cooled CCD camera. Data were generated by determining max-min fluorescence levels for unstimulated, stimulated, and drug treated samples. IC50 values for test compounds were calculated from inhibition of VEGF stimulated responses in the absence of inhibitor.
# [3] = target: VEGFR2 (KDR) (Homo sapiens (Human), UniProt P35968); experiment: VEGFR2 Kinase Assay (biochemical KDR kinase assay, ELISA); settings: purified cytoplasmic domain KDR protein, 2.7 μM ATP
# Sequence of VEGFR2 (KDR) (P35968 786-1356): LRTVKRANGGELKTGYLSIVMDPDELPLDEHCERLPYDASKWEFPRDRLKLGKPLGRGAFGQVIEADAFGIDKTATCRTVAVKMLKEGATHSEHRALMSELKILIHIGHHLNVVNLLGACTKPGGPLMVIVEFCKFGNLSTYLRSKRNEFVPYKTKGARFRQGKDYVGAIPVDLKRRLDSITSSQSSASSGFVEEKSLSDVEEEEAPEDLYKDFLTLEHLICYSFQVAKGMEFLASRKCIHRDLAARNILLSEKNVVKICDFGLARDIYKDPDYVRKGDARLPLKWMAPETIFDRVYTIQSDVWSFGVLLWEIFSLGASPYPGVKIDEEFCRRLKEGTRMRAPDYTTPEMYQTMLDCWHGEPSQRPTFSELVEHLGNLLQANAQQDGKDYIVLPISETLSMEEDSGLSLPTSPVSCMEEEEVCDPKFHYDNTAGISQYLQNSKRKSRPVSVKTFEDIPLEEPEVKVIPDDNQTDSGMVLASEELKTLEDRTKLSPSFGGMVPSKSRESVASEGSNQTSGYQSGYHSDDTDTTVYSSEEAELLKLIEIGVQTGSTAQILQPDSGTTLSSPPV
# Procedure: Biochemical KDR kinase assays were performed in 96 well microtiter plates that were coated overnight with 75 μg/well of poly-Glu-Tyr (4:1) in 10 mM Phosphate Buffered Saline (PBS), pH 7.4. The coated plates were washed with 2 mls per well PBS+0.05% Tween-20 (PBS-T), blocked by incubation with PBS containing 1% BSA, then washed with 2 mls per well PBS-T prior to starting the reaction. Reactions were carried out in 100 μL reaction volumes containing 2.7 μM ATP in kinase buffer (50 mM Hepes buffer pH 7.4, 20 mM MgCl2, 0.1 mM MnCl2 and 0.2 mM Na3VO4). Test compounds were reconstituted in 100% DMSO and added to the reaction to give a final DMSO concentration of 5%. Reactions were initiated by the addition 20 ul per well of kinase buffer containing 200-300 ng purified cytoplasmic domain KDR protein (BPS Bioscience, San Diego, Calif.). Following a 15 minute incubation at 30° C., the reactions were washed 2 mls per well PBS-T. 100 μl of a monoclonal anti-phosphotyrosine antibody-peroxidase conjugate diluted 1:10,000 in PBS-T was added to the wells for 30 minutes. Following a 2 mis per well wash with PBS-Tween-20, 100 μl of O-Phenylenediamine Dihydrochloride in phosphate-citrate buffer, containing urea hydrogen peroxide, was added to the wells for 7-10 minutes as a colorimetric substrate for the peroxidase. The reaction was terminated by the addition of 100 μl of 2.5N H2SO4 to each well and read using a microplate ELISA reader set at 492 nm. IC50 values for compound inhibition were calculated directly from graphs of optical density (arbitrary units) versus compound concentration following subtraction of blank values.
# [4] = target: T1, PDGFRβ; experiment: PDGFRβ Cellular Assay (FLIPR, PDGF-induced intracellular calcium in NHDF-Ad); format: cell-based; settings: PDGF-BB stimulation (30 ng/mL)
# Procedure: NHDF-Ad (Normal Human Dermal Fibroblasts, Adult; Lonza) were seeded in 384-well fibronectin coated black-walled plates overnight @ 37° C./5% CO2. Cells were loaded with calcium indicator Fluo-4 for 45 minutes at 37° C. Cells were washed 2 times (Elx405, Biotek Instruments) to remove extracellular dye. For screening, cells were pre-incubated with test agents for 30 minutes, at a single concentration (10 uM) or at concentrations ranging from 0.0001 to 10.0 uM followed by PDGF-BB stimulation (30 ng/mL). Changes in fluorescence at 516 nm were measured simultaneously in all 384 wells using a cooled CCD camera. Data were generated by determining max-min fluorescence levels for unstimulated, stimulated, and drug treated samples. IC50 values for test compounds were calculated from % inhibition of PDGF-BB stimulated responses in the absence of inhibitor.
# Target sequence in this assay (P09619 33-1106): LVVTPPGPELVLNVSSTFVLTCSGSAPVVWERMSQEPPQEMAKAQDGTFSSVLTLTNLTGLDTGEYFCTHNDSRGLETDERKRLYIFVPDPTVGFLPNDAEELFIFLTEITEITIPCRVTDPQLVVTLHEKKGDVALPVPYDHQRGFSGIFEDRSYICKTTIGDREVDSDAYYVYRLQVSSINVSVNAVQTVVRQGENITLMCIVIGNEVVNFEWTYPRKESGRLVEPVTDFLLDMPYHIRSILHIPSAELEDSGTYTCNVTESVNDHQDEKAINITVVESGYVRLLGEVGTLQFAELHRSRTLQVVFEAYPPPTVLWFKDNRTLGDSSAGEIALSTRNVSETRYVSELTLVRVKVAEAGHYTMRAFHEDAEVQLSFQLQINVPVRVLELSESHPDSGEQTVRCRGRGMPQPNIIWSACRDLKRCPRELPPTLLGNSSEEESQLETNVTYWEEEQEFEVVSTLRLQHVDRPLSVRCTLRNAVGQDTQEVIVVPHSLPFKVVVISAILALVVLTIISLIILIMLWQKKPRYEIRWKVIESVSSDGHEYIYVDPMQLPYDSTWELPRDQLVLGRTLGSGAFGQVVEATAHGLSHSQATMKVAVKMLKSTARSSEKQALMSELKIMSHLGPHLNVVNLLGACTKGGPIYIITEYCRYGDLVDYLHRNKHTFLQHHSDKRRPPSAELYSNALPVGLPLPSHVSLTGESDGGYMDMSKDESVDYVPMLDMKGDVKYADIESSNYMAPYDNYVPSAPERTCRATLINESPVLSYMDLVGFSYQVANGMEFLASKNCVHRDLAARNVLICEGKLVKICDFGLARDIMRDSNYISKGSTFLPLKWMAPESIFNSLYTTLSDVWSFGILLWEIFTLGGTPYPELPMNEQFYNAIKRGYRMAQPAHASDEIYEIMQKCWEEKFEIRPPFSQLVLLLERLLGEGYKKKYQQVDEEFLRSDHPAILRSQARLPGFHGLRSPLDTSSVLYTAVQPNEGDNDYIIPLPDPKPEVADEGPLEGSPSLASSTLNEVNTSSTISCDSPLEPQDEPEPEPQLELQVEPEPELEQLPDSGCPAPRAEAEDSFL
IC50 [1] [nM],IC50 [2] [nM],IC50 [3] [nM],IC50 [4] [nM],SMILES
20,26,8,–,"CC(C)c1cccc(NC(=O)c2cccc(N3CCc4c(cnc5ccnn45)C3)c2)c1 [Example 3, 3-(8,9-dihydropyrazolo[1,5-a]pyrido[3,4-e]pyrimidin-7(6H)-yl)-N-(3-isopropylphenyl)benzamide]"
27,70,6,192,"O=C(Nc1cccc(C(F)(F)F)c1)c1cccc(N2CCc3c(cnc4ccnn34)C2)c1 [Example 4, 3-(8,9-dihydropyrazolo[1,5-a]pyrido[3,4-e]pyrimidin-7(6H)-yl)-N-[3-(trifluoromethyl)phenyl] benzamide]"
–,–,> 10000,–,"CC(C)c1cccc(NC(=O)c2cccc(N3Cc4cnc5ccnn5c4C3)c2)c1 [Example 7, 3-(6,8-dihydro-7H-pyrazolo[1,5-a]pyrrolo[3,4-e]pyrimidin-7-yl)-N-(3-isopropylphenyl)benzamide]"
–,–,> 10000,–,"CC(C)(C)OC(=O)Nc1cccc(N2CCc3c(cnc4ccnn34)C2)c1 [Example 8, tert-Butyl (3-(8,9-dihydropyrazolo[1,5-a]pyrido[3,4-e]pyrimidin-7(6H)-yl)phenyl)carbamate]"
202,–,101,–,"O=C(Nc1cccc(N2CCc3c(cnc4ccnn34)C2)c1)c1ccccc1 [Example 10, N-[3-(8,9-dihydropyrazolo[1,5-a]pyrido[3,4-e]pyrimidin-7(6H)-yl)phenyl]benzamide]"
21,–,6,–,"O=C(Nc1cccc(N2CCc3c(cnc4ccnn34)C2)c1)c1cccc(C(F)(F)F)c1 [Example 11, N-[3-(8,9-dihydropyrazolo[1,5-a]pyrido[3,4-e]pyrimidin-7(6H)-yl)phenyl]-3-(trifluoromethyl)benzamid]"
32,–,27,–,"Cc1cccc(NC(=O)Nc2cccc(N3CCc4c(cnc5ccnn45)C3)c2)c1 [Example 12, 1-[3-(8,9-dihydropyrazolo[1,5-a]pyrido[3,4-e]pyrimidin-7(6H)-yl)phenyl]-3-(3-methylphenyl)urea]"
